{
  "source": "ChEMBL document CHEMBL1153106",
  "about": "“Thyroid receptor agonists for the treatment of androgenetic alopecia” (Bioorg Med Chem Lett, 2010)",
  "key": {"Mus musculus [1]": {"tested_on": "Mus musculus", "assay": "Hair growth stimulatory activity in C3H/HeN mouse treated 5 days a week topically to shaved lower back twice daily for 4 weeks", "assay_type": "functional"}, "[2]": {"target": "T1, Thyroid hormone receptor alpha (Homo sapiens, UniProt P10827)", "T1 sequence (P10827 whole entry)": "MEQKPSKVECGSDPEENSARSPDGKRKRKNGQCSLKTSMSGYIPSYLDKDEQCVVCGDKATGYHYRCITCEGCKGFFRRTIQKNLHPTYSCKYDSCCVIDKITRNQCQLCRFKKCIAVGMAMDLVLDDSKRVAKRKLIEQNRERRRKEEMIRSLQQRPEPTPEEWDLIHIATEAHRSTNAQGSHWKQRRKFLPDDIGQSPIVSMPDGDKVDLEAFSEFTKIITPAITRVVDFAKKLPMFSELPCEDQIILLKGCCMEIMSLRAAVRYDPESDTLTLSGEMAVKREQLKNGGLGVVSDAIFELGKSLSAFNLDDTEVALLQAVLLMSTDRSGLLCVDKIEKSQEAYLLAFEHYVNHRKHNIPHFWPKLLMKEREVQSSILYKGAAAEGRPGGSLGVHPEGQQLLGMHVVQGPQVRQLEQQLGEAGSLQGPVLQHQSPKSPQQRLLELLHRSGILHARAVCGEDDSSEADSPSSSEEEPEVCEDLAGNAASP", "assay": "Binding affinity to thyroid receptor alpha"}, "[3]": {"target": "T2, Thyroid hormone receptor beta (Homo sapiens, UniProt P10828)", "T2 sequence (P10828 whole entry)": "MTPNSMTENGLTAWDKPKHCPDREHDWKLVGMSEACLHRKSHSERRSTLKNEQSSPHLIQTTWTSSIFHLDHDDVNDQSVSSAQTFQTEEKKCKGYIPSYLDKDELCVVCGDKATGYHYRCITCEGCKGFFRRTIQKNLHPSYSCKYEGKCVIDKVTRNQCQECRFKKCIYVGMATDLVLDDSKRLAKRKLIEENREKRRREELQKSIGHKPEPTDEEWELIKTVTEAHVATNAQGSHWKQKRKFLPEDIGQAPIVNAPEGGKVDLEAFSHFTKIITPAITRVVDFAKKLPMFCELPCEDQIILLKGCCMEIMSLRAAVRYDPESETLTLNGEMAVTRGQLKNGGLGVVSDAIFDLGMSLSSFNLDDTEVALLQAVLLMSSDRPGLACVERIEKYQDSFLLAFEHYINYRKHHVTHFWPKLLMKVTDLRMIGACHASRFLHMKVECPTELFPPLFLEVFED", "assay": "Binding affinity to thyroid receptor beta"}, "Rattus norvegicus": {"tested_on": "Rattus norvegicus", "assay": "Apparent volume of distribution at steady state in rat at 0.5 mg/kg, iv", "assay_type": "ADME, organism-based", "parameters": "dose 0.5 mg/kg, route intravenous", "details": "in vivo"}, "[4]": {"assay": "Drug level in bald stump-tailed monkey model after 2 months", "assay_type": "ADME, organism-based", "details": "macaca arctoides, in vivo; read-out: Drug uptake"}, "Macaca arctoides": {"species_on_record": "Macaca arctoides", "assay": "Hair growth stimulatory activity in bal stump-tailed monkey model", "assay_type": "functional"}, "[5]": {"assay": "Clearance in human blood", "assay_type": "ADME, organism-based"}, "Zone of skin [6]": {"tested_on": "Zone of skin", "assay": "Effect on transepidermal penetration in human cadaver skin assessed as drug distributed to epidermis after 40 hrs using Franz diffusion chamber", "assay_type": "functional"}, "[7]": {"assay": "Drug level in bald stump-tailed monkey model after 3 months", "assay_type": "ADME, organism-based", "details": "macaca arctoides, in vivo; read-out: Drug uptake"}, "Zone of skin [8]": {"tested_on": "Zone of skin", "assay": "Effect on transepidermal penetration in human cadaver skin assessed as total penetration after 40 hrs using Franz diffusion chamber", "assay_type": "functional"}, "[9]": {"assay": "Toxicity in bald stump-tailed monkey skin after 4 months", "assay_type": "tissue-based, Zone of skin", "details": "macaca arctoides, in vivo, 2922 h"}, "[10]": {"assay": "Metabolic stability in rat liver microsomes", "assay_type": "ADME, Microsome"}, "[11]": {"assay": "Intrinsic clearance in rat", "assay_type": "ADME, organism-based", "details": "not recorded"}, "NIH3T3": {"tested_on": "NIH3T3", "assay": "Phototoxicity in mouse 3T3 cells by neutral red uptake assay", "assay_type": "cell-based"}, "Thyroid hormone receptor": {"target": "T3, Thyroid hormone receptor (Homo sapiens, UniProt P10827+P10828)", "T3 sequence (P10827 whole entry)": "T1 sequence (P10827 whole entry)", "T3 sequence (P10828 whole entry)": "T2 sequence (P10828 whole entry)", "assay": "Binding affinity to thyroid hormone receptor in human HepG2 cells"}, "Mus musculus [12]": {"tested_on": "Mus musculus", "assay": "Ratio of drug to minoxidil MED for hair growth stimulatory activity in female C3H/HeN mouse at 0.1 mg/mL, treated topically to shaved lower back as single dose", "assay_type": "functional, organism-based"}, "[13]": {"assay": "Clearance in rat blood", "assay_type": "ADME, organism-based"}, "Zone of skin [14]": {"tested_on": "Zone of skin", "assay": "Effect on transepidermal penetration in human cadaver skin assessed as drug distributed to dermis after 40 hrs using Franz diffusion chamber", "assay_type": "functional"}, "[15]": {"assay": "Half life in rat hepatocytes", "assay_type": "ADME, cell-based, Liver, Hepatocyte"}, "[16]": {"assay": "Intrinsic clearance in human", "assay_type": "ADME, organism-based", "details": "not recorded"}, "[17]": {"assay": "Plasma clearance in rat at 0.5 mg/kg, iv", "assay_type": "ADME, organism-based", "parameters": "dose 0.5 mg/kg, route intravenous"}, "[18]": {"assay": "Terminal half life in rat at 0.5 mg/kg, iv", "assay_type": "ADME, organism-based", "parameters": "dose 0.5 mg/kg, route intravenous", "details": "in vivo, read-out: beta t1/2 (converted)"}, "[19]": {"assay": "Drug level in bald stump-tailed monkey model after 4 months", "assay_type": "ADME, organism-based", "details": "macaca arctoides, in vivo; read-out: Drug uptake"}, "[20]": {"assay": "Half life in human hepatocytes", "assay_type": "ADME, cell-based, Liver, Hepatocyte"}, "[21]": {"assay": "Metabolic stability in […] human liver microsomes", "assay_type": "ADME, Microsome"}, "Zone of skin [22]": {"tested_on": "Zone of skin", "assay": "Effect on transepidermal penetration in human cadaver skin assessed as maximal penetration rate after 28 hrs using Franz diffusion chamber", "assay_type": "functional"}, "Mus musculus [23]": {"tested_on": "Mus musculus", "assay": "Ratio of drug to minoxidil MED for hair growth stimulatory activity in female C3H/HeN mouse at 1 mg/mL, treated topically to shaved lower back as single dose", "assay_type": "functional, organism-based"}},
  "note": "The source made the active and inactive calls. The calls are words filed in the database; no cut-off is given here.",
  "data": [
    {"smiles": "O=C(c1cc(Oc2c(Cl)cc(-n3ncc(=O)[nH]c3=O)cc2Cl)ccc1O)N1CCCCC1", "values": [
      {"measurement": "MED", "setting": "Mus musculus [1]", "value": 0.1, "unit": "%"},
      {"measurement": "Ki", "setting": "[2]", "value": 20, "unit": "nM"},
      {"measurement": "Ki", "setting": "[3]", "value": 1, "unit": "nM"}
    ]},
    {"smiles": "Cc1cc(NC(=O)CC(=O)O)cc(Cl)c1Oc1ccc(O)c(S(=O)(=O)CC2CCC2)c1", "values": [
      {"measurement": "MED", "setting": "Mus musculus [1]", "value": 0.1, "unit": "%"},
      {"measurement": "Ki", "setting": "[2]", "value": 2.1, "unit": "nM"},
      {"measurement": "Ki", "setting": "[3]", "value": 0.5, "unit": "nM"}
    ]},
    {"smiles": "Cc1cc(-n2ncc(=O)[nH]c2=O)cc(C)c1Oc1ccc(O)c(Cc2ccc(F)cc2)c1", "values": [
      {"measurement": "Vdss(app)", "setting": "Rattus norvegicus", "value": 4.88, "unit": "L/kg"},
      {"measurement": "concentration at 1461 h", "setting": "[4]", "value": "< 2", "unit": "ng/mL"},
      {"measurement": "MED", "setting": "Macaca arctoides", "value": 0.1, "unit": "%"},
      {"measurement": "MED", "setting": "Mus musculus [1]", "value": 0.003, "unit": "%"},
      {"measurement": "clearance", "setting": "[5]", "value": 15, "unit": "mL/min/kg"},
      {"measurement": "Activity", "setting": "Zone of skin [6]", "value": 9.88, "unit": "%"},
      {"measurement": "concentration at 2191.5 h", "setting": "[7]", "value": "< 1", "unit": "ng/mL"},
      {"measurement": "Activity", "setting": "Zone of skin [8]", "value": 6.17, "unit": "%"},
      {"measurement": "Activity", "setting": "[9]", "value": "Non-toxic"},
      {"measurement": "half-life", "setting": "[10]", "value": 40, "unit": "min"},
      {"measurement": "CLint scaled", "setting": "[11]", "value": 149, "unit": "mL/min/kg"},
      {"measurement": "Activity", "setting": "NIH3T3", "value": "Non-toxic"},
      {"measurement": "EC50", "setting": "Thyroid hormone receptor", "value": 0.5, "unit": "nM"},
      {"measurement": "Activity", "setting": "Mus musculus [12]", "value": "Active"},
      {"measurement": "clearance", "setting": "[13]", "value": 51, "unit": "mL/min/kg"},
      {"measurement": "Activity", "setting": "Zone of skin [14]", "value": 0.58, "unit": "%"},
      {"measurement": "half-life", "setting": "[15]", "value": 45, "unit": "min"},
      {"measurement": "CLint scaled", "setting": "[16]", "value": 29, "unit": "mL/min/kg"},
      {"measurement": "clearance", "setting": "[17]", "value": 40, "unit": "mL/min/kg"},
      {"measurement": "half-life", "setting": "[18]", "value": 164, "unit": "min"},
      {"measurement": "concentration at 2922 h", "setting": "[19]", "value": "< 1", "unit": "ng/mL"},
      {"measurement": "Ki", "setting": "[2]", "value": 3, "unit": "nM"},
      {"measurement": "half-life", "setting": "[20]", "value": 119, "unit": "min"},
      {"measurement": "half-life", "setting": "[21]", "value": 39, "unit": "min"},
      {"measurement": "Activity", "setting": "Zone of skin [22]", "value": 0.14, "unit": "microg/cm2/h"},
      {"measurement": "Activity", "setting": "Mus musculus [23]", "value": "Active"},
      {"measurement": "Ki", "setting": "[3]", "value": 0.4, "unit": "nM"}
    ]},
    {"smiles": "Cc1cc(NC(=O)C(=O)O)cc(C)c1Oc1ccc(O)c2c1CCC2", "values": [
      {"measurement": "MED", "setting": "Mus musculus [1]", "value": 1, "unit": "%"},
      {"measurement": "Ki", "setting": "[2]", "value": 0.7, "unit": "nM"},
      {"measurement": "Ki", "setting": "[3]", "value": 0.5, "unit": "nM"}
    ]},
    {"smiles": "O=C(c1cc(Oc2c(Cl)cc(-n3ncc(=O)[nH]c3=O)cc2Cl)ccc1O)N1CCc2ccccc2C1", "values": [
      {"measurement": "MED", "setting": "Mus musculus [1]", "value": 0.1, "unit": "%"},
      {"measurement": "Ki", "setting": "[2]", "value": 126, "unit": "nM"},
      {"measurement": "Ki", "setting": "[3]", "value": 2, "unit": "nM"}
    ]},
    {"smiles": "O=c1cnn(-c2cc(Cl)c(Oc3ccc(O)c(Cc4ccc(F)cc4)c3)c(Cl)c2)c(=O)[nH]1", "values": [
      {"measurement": "MED", "setting": "Mus musculus [1]", "value": 0.01, "unit": "%"},
      {"measurement": "Ki", "setting": "[2]", "value": 8, "unit": "nM"},
      {"measurement": "Ki", "setting": "[3]", "value": 0.51, "unit": "nM"}
    ]},
    {"smiles": "Nc1cc(N2CCCCC2)nc(N)[n+]1[O-]", "note": "[MINOXIDIL]", "values": [
      {"measurement": "MED", "setting": "Macaca arctoides", "value": 2, "unit": "%"},
      {"measurement": "MED", "setting": "Mus musculus [1]", "value": 2.5, "unit": "%"}
    ]}
  ]
}
